Patent US10927078B2, “Modulators of indoleamine 2,3-dioxygenase” (GLAXOSMITHKLINE INTELLECTUAL PROPERTY DEVELOPMENT LIMITED, priority 2017, dated 2021)

molecular target: indoleamine 2, 3-dioxygenase (IDO1) (Homo sapiens, UniProt P14902); assay: PBMC IDO1 assay (kynurenine via mass spectrometry); assay type: cell-based; details: not given
Outline: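 Human PBMCs (50,000/well) stimulated with IFN-γ 100 ng/ml and LPS 50 ng/ml to induce IDO1, exposed to 11-point 3-fold compound dilutions for 2 days at 37° C. Supernatant kynurenine measured by RapidFire MS relative to internal standard; XC50 from four-parameter fit. Cytotoxicity tracked in parallel by ATP luminescence.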

Sequence of indoleamine 2, 3-dioxygenase (IDO1) (P14902 whole entry): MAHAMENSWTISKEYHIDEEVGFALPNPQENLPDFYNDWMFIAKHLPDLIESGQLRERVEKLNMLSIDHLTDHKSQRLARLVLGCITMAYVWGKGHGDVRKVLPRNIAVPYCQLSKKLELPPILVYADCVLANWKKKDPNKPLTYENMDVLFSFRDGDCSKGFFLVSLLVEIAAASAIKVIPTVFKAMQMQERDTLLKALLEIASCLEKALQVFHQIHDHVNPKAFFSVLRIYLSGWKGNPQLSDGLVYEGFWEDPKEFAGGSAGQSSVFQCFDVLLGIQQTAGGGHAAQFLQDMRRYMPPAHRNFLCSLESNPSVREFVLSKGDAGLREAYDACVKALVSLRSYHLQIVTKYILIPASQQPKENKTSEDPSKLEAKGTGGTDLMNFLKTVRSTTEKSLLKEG

Row | SMILES | IC50
1 | COc1ncccc1OC(=O)N1CCC([C@@H](CC(C)C)NC(=O)c2ccc(F)cc2)CC1 [Example 105, (R)-2-methoxypyridin-3-yl 4-(1-(4-fluorobenzamido)-3-methylbutyl)piperidine-1-carboxylate] | 1.26 nM
2 | Cc1ncccc1OC(=O)N1CCC([C@H](NC(=O)c2ccc(Cl)cc2)c2ccccc2)CC1 [Example 14, 2-methylpyridin-3-yl 4-[(S)-[(4-chlorophenyl)formamido](phenyl)methyl]piperidine-1-carboxylate] | 2.51 nM
3 | CC(C)CC(NC(=O)c1ccc(F)cc1)C1CCN(C(=O)Oc2cccnc2F)CC1 (centres unmarked) [Example 22, 2-fluoropyridin-3-yl 4-{1-[(4-fluorophenyl)formamido]-3-methylbutyl}piperidine-1-carboxylate] | 3.98 nM
4 | Cc1ccnc(C)c1OC(=O)N1CCC(C(CC(C)C)NC(=O)c2ccc(Cl)cc2)CC1 (centres unmarked) [Example 3, 2,4-dimethylpyridin-3-yl 4-(1-(4-chlorobenzamido)-3-methylbutyl)piperidine-1-carboxylate] | 1 nM

same assay, conditions: human PBMC stimulated with IFN-γ and LPS, 2 days, kynurenine by mass spectrometry; recorded as pIC50

Row | SMILES | PBMC PXC50_
5 | COc1ccc(OC(=O)N2CCC(C(NC(=O)c3ccc(F)cc3)c3ccncc3)CC2)cn1 (centres unmarked) [Example 99, 6-methoxpyridin-3-yl 4-{[(4-fluorophenyl)formamido](pyridin-4-yl)methyl}piperidine-1-carboxylate] | 5.6

same assay, conditions: human PBMC stimulated with IFN-γ and LPS, 2 days, kynurenine by mass spectrometry; recorded as pIC50; read-out: PBMC PXC50_ (converted)

Row | SMILES | IC50
6 | CC(C)CC(NC(=O)c1ccc(F)cc1)C1CCN(C(=O)OC2CCNc3ccccc32)CC1 (centres unmarked) [Example 84, 1,2,3,4-tetrahydroquinolin-4-yl 4-{1-[(4-fluorophenyl)formamido]-3-methylbutyl}piperidine-1-carboxylate] | 501 nM
7 | COc1cccc(OC(=O)N2CCC(C(CC(C)C)NC(=O)c3ccc(F)cc3)CC2)c1 (centres unmarked) [Example 54, 3-methoxyphenyl 4-{1-[(4-fluorophenyl)formamido]-3-methylbutyl}piperidine-1-carboxylate] | 20 nM
8 | CC(C)CC(NC(=O)c1ccc(F)cc1)C1CCN(C(=O)Oc2ccc(F)cc2)CC1 (centres unmarked) [Example 50, 4-fluorophenyl 4-{1-[(4-fluorophenyl)formamido]-3-methylbutyl}piperidine-1-carboxylate] | 12.6 nM
9 | O=C(NC(C1CC1)C1CCN(C(=O)Oc2ccccc2)CC1)c1ccc(Cl)s1 (centres unmarked) [Example 46, phenyl 4-{[(5-chlorothiophen-2-yl)formamido](cyclopropyl)methyl}piperidine-1-carboxylate] | 10 nM
10 | CC(C)CC(NC(=O)c1nnc(Cl)s1)C1CCN(C(=O)Oc2ccccc2)CC1 (centres unmarked) [Example 83, phenyl 4-{1-[(5-chloro-1,3,4-thiadiazol-2-yl)formamido]-3-methylbutyl}piperidine-1-carboxylate] | 501 nM
11 | CC(C)CC(NC(=O)c1ccc(F)cc1)C1CCN(C(=O)OCc2ccccc2)CC1 (centres unmarked) [Example 62, benzyl 4-{1-[(4-fluorophenyl)formamido]-3-methylbutyl}piperidine-1-carboxylate] | 63.1 nM
12 | Cc1c(F)cccc1OC(=O)N1CCC([C@H](NC(=O)c2ccc(Cl)s2)C2CC2)CC1 [Example 19, 3-fluoro-2-methylphenyl 4-[(R)-[(5-chlorothiophen-2-yl)formamido](cyclopropyl)methyl]piperidine-1-carboxylate] | 3.16 nM
13 | CC(C)C[C@@H](NC(=O)c1ccccc1)C1CCN(C(=O)Oc2ccccc2)CC1 [Example 25, phenyl 4-[(1R)-3-methyl-1-(phenylformamido)butyl]piperidine-1-carboxylate] | 5.01 nM
14 | CC(C)C[C@@H](NC(=O)c1cccc2cn[nH]c12)C1CCN(C(=O)Oc2ccccc2)CC1 [Example 109, (R)-phenyl 4-(1-(1H-indazole-7-carboxamido)-3-methylbutyl)piperidine-1-carboxylate] | 6.31 nM
15 | CC(NC(=O)c1ccc(F)cc1)C1CCN(C(=O)Oc2ccccc2)CC1 (centres unmarked) [Example 74, phenyl 4-{1-[(4-fluorophenyl)formamido]ethyl}piperidine-1-carboxylate] | 158 nM
16 | COc1nccc(OC(=O)N2CCC(C(CC(C)C)NC(=O)c3ccc(F)cc3)CC2)c1F (centres unmarked) [Example 60, 3-fluoro-2-methoxypyridin-4-yl 4-{1-[(4-fluorophenyl)formamido]-3-methylbutyl}piperidine-1-carboxylate] | 50.1 nM
17 | O=C(NC(c1ccccc1)C1CCN(C(=O)Oc2ccccc2)CC1)c1ccc(C(F)(F)F)cn1 (centres unmarked) [Example 88, phenyl 4-[phenyl({[5-(trifluoromethyl)pyridin-2-yl]formamido})methyl]piperidine-1-carboxylate] | 631 nM
18 | Cc1c(F)cccc1OC(=O)N1CCC([C@H](C)NC(=O)c2ccc(Cl)s2)CC1 [Example 92, 3-fluoro-2-methylphenyl 4-[(1S)-1-[(5-chlorothiophen-2-yl)formamido]ethyl]piperidine-1-carboxylate] | 631 nM
19 | Cc1nccc(OC(=O)N2CCC([C@H](NC(=O)c3ccc(Cl)s3)c3ccccc3)CC2)c1C [Example 1, (S)-2,3-dimethylpyridin-4-yl 4-((5-chlorothiophene-2-carboxamido)(phenyl)methyl)piperidine-1-carboxylate] | 0.631 nM
20 | COc1c(F)cccc1OC(=O)N1CCC([C@@H](CC(C)C)NC(=O)c2ccc(F)cc2)CC1 [Example 106, (R)-3-fluoro-2-methoxyphenyl 4-(1-(4-fluorobenzamido)-3-methylbutyl)piperidine-1-carboxylate] | 1.58 nM
21 | O=C(NC(c1ccccc1)C1CCN(C(=O)Oc2ccccc2)CC1)c1ccc(C(F)(F)F)cc1 (centres unmarked) [Example 73, phenyl 4-[phenyl({[4-(trifluoromethyl)phenyl]formamido})methyl]piperidine-1-carboxylate] | 158 nM
22 | COc1cc(OC(=O)N2CCC(C(NC(=O)c3ccc(F)cc3)c3ccncc3)CC2)ccn1 (centres unmarked) [Example 93, 2-methoxpyridin-4-yl 4-{[(4-fluorophenyl)formamido](pyridin-4-yl)methyl}piperidine-1-carboxylate] | 794 nM
23 | COc1ccc([C@@H](NC(=O)c2ccc(Cl)cc2)C2CCN(C(=O)Oc3ccccc3)CC2)cn1 [Example 111, (S)-phenyl 4-((4-chlorobenzamido)(6-methoxypyridin-3-yl)methyl)piperidine-1-carboxylate] | 63.1 nM

system: conversion of T cells into CD4+FoxP3+ Tregs; assay: not given; details: co-culture of DCs and naive CD4+CD25- T cells; cited from earlier work

Row | SMILES | conversion of T cells into CD4+FoxP3+ Tregs
24 | NS(=O)(=O)NCCNc1nonc1C(=NO)Nc1ccc(F)c(Br)c1 [INCB204360] | blocked the conversion

system: PAN02 pancreatic cells; assay: not given; details: immunocompetent mice, orally dosed; cited from earlier work

Row | SMILES | inhibition of tumor growth
25 | NS(=O)(=O)NCCNc1nonc1C(=NO)Nc1ccc(F)c(Br)c1 [INCB204360] | significant dose-dependent inhibition of tumor growth

same assay, conditions: tumor implanted in immune-deficient mice, orally dosed; cited from earlier work

Row | SMILES | effect against the same tumor
26 | NS(=O)(=O)NCCNc1nonc1C(=NO)Nc1ccc(F)c(Br)c1 [INCB204360] | without effect
